According to patent US9253983B2, “Triazole compound and use thereof” (KUREHA CORPORATION, priority 2011, dated 2016):

What was measured:
[1] = test system: Puccinia recondita; test: Efficacy of seed treatment on wheat brown rust; type: in vivo; conditions: wheat seed treatment 20 g ai/100 kg seeds, 12 days after inoculation
Protocol: A pot experiment was performed to evaluate the efficacy of seed treatment in controlling wheat leaf rust. Compound (1-1a) and Compound (1-2a), each of which was dissolved in DMSO to make up such a concentration that the seeds would be treated in treatment amount of 20 g ai/100 kg seeds, were each applied to wheat seeds in a vial, and thereafter 8 wheat seeds were sowed on an 80-cm^2 pot. The pot was kept in a greenhouse with water supplied to its bottom. 21 days after the sowing, the wheat seeds were inoculated with Puccinia recondita, and kept in a wet box for 2 days. After that, the pot was again kept in the greenhouse with water supplied to its bottom. 12 days after the inoculation, the percentage of affected area was found, and the protective value was calculated by the following equation. Protective value (%)=(1−(Percentage of affected area in treated region/Percentage of affected area in untreated region))×100

[2] = test system: Pyrenophora graminea; test: Test 2 for antifungal effect, plate medium: P.g; type: cell-based; conditions: PDA plate medium
Protocol: (§1) Compound (1-1b) or Compound (1-2b) was dissolved in dimethyl sulfoxide, and the resulting solution was added to a PDA medium (potato dextrose-agar medium) at about 60° C. The medium and the solution were mixed thoroughly in a conical flask, poured into a petri dish, and allowed to solidify. In this way, a plate medium containing Compound (1-1b) or Compound (1-2b) at a certain concentration was prepared.
Meanwhile, test microorganisms cultured on a plate medium in advance were cut out with the use of a cork borer 4 mm in diameter, and were inoculated onto the compound-containing plate medium. After the inoculation, the pathogens were cultured at their optimum growth temperatures (for example, refer to LIST OF CULTURES 1996 microorganisms 10th edition, Institute for Fermentation (foundation)) for 1 day to 7 days, and their growth was determined by measuring the diameter of their flora. The extent of growth of the pathogens on the compound-containing plate medium was compared with that of pathogens on a plate medium where no compound was added, and mycelial growth inhibition rate was calculated as in Experiment Example 10. Note that, in Experiment Example 11, controls used in the antifungal effect tests are Compound (1-1a) and Compound (1-2a) instead of Compound (1-1b) and Compound (1-2b), respectively.
The results were rated on a 1-to-5 scale as in Experiment Example 10.

[3] = test system: Gaeumannomyces graminis; test: Test 1 for antifungal effect, plate medium: G.g; type: cell-based; conditions: PDA plate medium
Protocol: as §1, with “(1-1a)” for “(1-1b)”, “(1-2a)” for “(1-2b)”
(§2) Meanwhile, test microorganisms cultured on a plate medium in advance were cut out with the use of a cork borer 4 mm in diameter, and were inoculated onto the compound-containing plate medium. After the inoculation, the microorganisms were cultured at their optimum growth temperatures (for example, refer to LIST OF CULTURES 1996 microorganisms 10th edition, Institute for Fermentation (foundation)) for 1 day to 7 days, and their growth was determined by measuring the diameter of their flora. The extent of growth of the microorganisms on the compound-containing plate medium was compared with that of microorganisms on a plate medium where no compound was added, and mycelial growth inhibition rate was calculated by the following equation: R=100(dc−dt)/dc where R is mycelial growth inhibition rate (%), dc is the flora diameter in untreated plate, and dt is the flora diameter in plate treated with the compound.
(§3) A larger antifungal index indicates a better antifungal effect.

[4] = test system: Microdochium nivale; test: Test 1 for antifungal effect, plate medium: M.n; type: cell-based; conditions: PDA plate medium
Protocol: as §1, with “(1-1a)” for “(1-1b)”, “(1-2a)” for “(1-2b)”
as §2, §3

[5] = test system: Sclerotinia sclerotiorum; test: Test 1 for antifungal effect, plate medium: S.s; type: cell-based; conditions: PDA plate medium
Protocol: as §1, with “(1-1a)” for “(1-1b)”, “(1-2a)” for “(1-2b)”
as §2, §3

[6] = test system: wheat; test: Growth inhibition (adverse effects) of seed treatment on wheat seeds; type: in vivo; conditions: wheat, 20 days after sowing
Protocol: A pot experiment was performed to evaluate the growth inhibition (adverse effects) caused by the seed treatment. Compound (1-1a) and Compound (1-2a), each of which was dissolved in DMSO to make up such a concentration that the seeds would be treated in treatment amount of 2 g to 200 g ai/100 kg seeds, were each applied to wheat seeds in a vial, and thereafter 8 wheat seeds were sowed in an 80-cm^2 pot. The pot was kept in a greenhouse with water supplied to its bottom. 20 days after the sowing, a growth measure of wheat was evaluated. A growth inhibition index was calculated based on the criteria shown by Table 10. In Table 10, a smaller growth inhibition index indicates a lesser adverse effect of growth inhibition caused by the treatment with the use of a plant disease controlling agent.

[7] = test system: Phaeosphaeria nodorum; test: Test 1 for antifungal effect, plate medium: P.n; type: cell-based; conditions: PDA plate medium
Protocol: as §1, with “(1-1a)” for “(1-1b)”, “(1-2a)” for “(1-2b)”
as §2, §3

[8] = test system: wheat; test: Necrosis (adverse effects) of seed treatment on wheat seeds; type: in vivo; conditions: 20 days after sowing
Protocol: A pot experiment was performed to evaluate necrosis (adverse effects) caused by the seed treatment. Compound (1-1a) and Compound (1-2a), each which was dissolved in DMSO to make up such a concentration that the seeds would be treated in treatment amount of 2 g to 200 g ai/100 kg seeds, were each applied to wheat seeds in a vial, and thereafter 8 wheat seeds were sowed in an 80-cm^2 pot. The pot was kept in a greenhouse with water supplied to its bottom. 20 days after the sowing, an extent of necrosis (percentage of necrotic surface area) of wheat was evaluated. A necrosis index was derived from the percentage of the necrotic surface area, based on the criteria shown by Table 13. In Table 13, a smaller necrosis index indicates a lesser adverse effect of necrosis caused by the treatment with the use of a plant disease controlling agent.

[9] = test system: Gibberella fujikuroi; test: Test 1 for antifungal effect, plate medium: G.f; type: cell-based; conditions: PDA plate medium
Protocol: as §1, with “(1-1a)” for “(1-1b)”, “(1-2a)” for “(1-2b)”
as §2, §3

[10] = treatment amount 2 g ai/100 kg seeds
[11] = treatment amount 20 g ai/100 kg seeds
[12] = treatment amount 200 g ai/100 kg seeds

Structure (SMILES)	Protective value (%) [1]	Antifungal index (mycelial growth inhibition rate) ([2]; 0.04 mg/L)	Antifungal index (mycelial growth inhibition rate) ([2]; 0.08 mg/L)	Antifungal index (mycelial growth inhibition rate) ([2]; 0.16 mg/L)	Antifungal index (mycelial growth inhibition rate) ([2]; 0.31 mg/L)	Antifungal index (mycelial growth inhibition rate) ([2]; 0.63 mg/L)	Antifungal index (mycelial growth inhibition rate) ([2]; 1.25 mg/L)	Antifungal index (mycelial growth inhibition rate) ([3]; 0.16 mg/L)	Antifungal index (mycelial growth inhibition rate) ([3]; 0.31 mg/L)	Antifungal index (mycelial growth inhibition rate) ([3]; 0.63 mg/L)	Antifungal index (mycelial growth inhibition rate) ([3]; 1.25 mg/L)	Antifungal index (mycelial growth inhibition rate) ([3]; 2.50 mg/L)	Antifungal index (mycelial growth inhibition rate) ([4]; 0.16 mg/L)	Antifungal index (mycelial growth inhibition rate) ([4]; 0.31 mg/L)	Antifungal index (mycelial growth inhibition rate) ([4]; 0.63 mg/L)	Antifungal index (mycelial growth inhibition rate) ([4]; 1.25 mg/L)	Antifungal index (mycelial growth inhibition rate) ([4]; 2.50 mg/L)	Antifungal index (mycelial growth inhibition rate) ([5]; 0.16 mg/L)	Antifungal index (mycelial growth inhibition rate) ([5]; 0.31 mg/L)	Antifungal index (mycelial growth inhibition rate) ([5]; 0.63 mg/L)	further results
CC1(CCl)CCC(Cc2ccc(F)cc2)C1(O)Cn1cncn1 (single isomer, unassigned) [Compound (1-2a), (1,2-cis, 1,5-cis)-5-(4-fluorobenzyl)-2-chloromethyl-2-methyl-1-(1H-1,2,4-triazole-1-ylmethyl)cyclopentanol]	100%	1 (Less than 60%)	2 (Less than 70% but not less than 60%)	4 (Less than 90% but not less than 80%)	5 (90% or greater)	5 (90% or greater)	5 (90% or greater)	1 (Less than 60%)	4 (Less than 90% but not less than 80%)	5 (90% or greater)	5 (90% or greater)	5 (90% or greater)	1 (Less than 60%)	1 (Less than 60%)	2 (Less than 70% but not less than 60%)	3 (Less than 80% but not less than 70%)	5 (90% or greater)	5 (90% or greater)	5 (90% or greater)	5 (90% or greater)	Antifungal index (mycelial growth inhibition rate) ([5]; 1.25 mg/L): 5 (90% or greater); Antifungal index (mycelial growth inhibition rate) ([5]; 2.50 mg/L): 5 (90% or greater); Growth inhibition index [6, 10]: 0 (50% or more); Growth inhibition index [6, 11]: 0 (50% or more); Growth inhibition index [6, 12]: 2 (Less than 40% but 30% or more); Antifungal index (mycelial growth inhibition rate) ([7]; 0.16 mg/L): 1 (Less than 60%); Antifungal index (mycelial growth inhibition rate) ([7]; 0.31 mg/L): 2 (Less than 70% but not less than 60%); Antifungal index (mycelial growth inhibition rate) ([7]; 0.63 mg/L): 5 (90% or greater); Antifungal index (mycelial growth inhibition rate) ([7]; 1.25 mg/L): 5 (90% or greater); Antifungal index (mycelial growth inhibition rate) ([7]; 2.50 mg/L): 5 (90% or greater); Necrosis index [8, 10]: 0 (Less than 1%); Necrosis index [8, 11]: 0 (Less than 1%); Necrosis index [8, 12]: 0 (Less than 1%); Antifungal index (mycelial growth inhibition rate) ([9]; 0.16 mg/L): 4 (Less than 90% but not less than 80%); Antifungal index (mycelial growth inhibition rate) ([9]; 0.31 mg/L): 5 (90% or greater); Antifungal index (mycelial growth inhibition rate) ([9]; 0.63 mg/L): 5 (90% or greater); Antifungal index (mycelial growth inhibition rate) ([9]; 1.25 mg/L): 5 (90% or greater); Antifungal index (mycelial growth inhibition rate) ([9]; 2.50 mg/L): 5 (90% or greater)
CC1(CCl)CCC(Cc2ccc(Cl)cc2)C1(O)Cn1cncn1 (single isomer, unassigned) [Compound (1-1a), (1,2-cis, 1,5-cis)-5-(4-chlorobenzyl)-2-chloromethyl-2-methyl-1-(1H-1,2,4-triazole-1-ylmethyl)cyclopentanol]	90%	2 (Less than 70% but not less than 60%)	3 (Less than 80% but not less than 70%)	4 (Less than 90% but not less than 80%)	5 (90% or greater)	5 (90% or greater)	5 (90% or greater)	3 (Less than 80% but not less than 70%)	5 (90% or greater)	5 (90% or greater)	5 (90% or greater)	5 (90% or greater)	1 (Less than 60%)	3 (Less than 80% but not less than 70%)	3 (Less than 80% but not less than 70%)	4 (Less than 90% but not less than 80%)	5 (90% or greater)	5 (90% or greater)	5 (90% or greater)	5 (90% or greater)	Antifungal index (mycelial growth inhibition rate) ([5]; 1.25 mg/L): 5 (90% or greater); Antifungal index (mycelial growth inhibition rate) ([5]; 2.50 mg/L): 5 (90% or greater); Growth inhibition index [6, 10]: 0 (50% or more); Growth inhibition index [6, 11]: 0 (50% or more); Growth inhibition index [6, 12]: 0 (50% or more); Antifungal index (mycelial growth inhibition rate) ([7]; 0.16 mg/L): 2 (Less than 70% but not less than 60%); Antifungal index (mycelial growth inhibition rate) ([7]; 0.31 mg/L): 3 (Less than 80% but not less than 70%); Antifungal index (mycelial growth inhibition rate) ([7]; 0.63 mg/L): 5 (90% or greater); Antifungal index (mycelial growth inhibition rate) ([7]; 1.25 mg/L): 5 (90% or greater); Antifungal index (mycelial growth inhibition rate) ([7]; 2.50 mg/L): 5 (90% or greater); Necrosis index [8, 10]: 0 (Less than 1%); Necrosis index [8, 11]: 0 (Less than 1%); Necrosis index [8, 12]: 0 (Less than 1%); Antifungal index (mycelial growth inhibition rate) ([9]; 0.16 mg/L): 5 (90% or greater); Antifungal index (mycelial growth inhibition rate) ([9]; 0.31 mg/L): 5 (90% or greater); Antifungal index (mycelial growth inhibition rate) ([9]; 0.63 mg/L): 5 (90% or greater); Antifungal index (mycelial growth inhibition rate) ([9]; 1.25 mg/L): 5 (90% or greater); Antifungal index (mycelial growth inhibition rate) ([9]; 2.50 mg/L): 5 (90% or greater)
